Structures are written as SMILES. Values joined by “and” are separate entries in the source; they are usually repeats but may differ in a detail not shown here. Equal entries are not always repeated. Where two headings read alike, the source gives them in different places.

Series [1] concerns the target T1, P-gp (Homo sapiens, UniProt P08183). Put plainly: Vesicular transport assay, P-gp (N-methyl-quinidine substrate). Particulars: food additive 50 μM; N-methyl-quinidine 2 μM; n = 1.
Protocol: (§1) Transport inhibition by 22 food additives was tested with Spodoptera frugiperda (Sf9) derived crude membrane vesicles expressing BCRP, MRP2, or P-gp produced in-house. […] Vesicles (50 μg total protein/well) were diluted in an assay buffer (40 mM MOPS–Tris pH 7.0, 60 mM KCl, and 6 mM MgCl2) with the substrate, and food additives (final concentration of 50 μM) in DMSO were added to the mixture. After preincubation, either the assay buffer or Mg-ATP solution (final concentration 4 mM) was added to the plate to start the reaction. The plate was incubated at 37 °C, and the reaction was stopped with an ice-cold washing mixture (40 mM MOPS-Tris pH 7.0 and 70 mM KCl). Samples were moved to a MultiScreenHTS-FB Plate Glass fiber 1.0 μm/0.65 μm Durapore filter plate (Millipore, USA), and the wells were washed five times with the ice-cold washing mixture. For BCRP and MRP2, the fluorescent substrate was eluted from the filters with 100 μL 0.1 M NaOH. For LY samples, an equal volume of 0.1 M HCl was added to neutralize the samples before fluorescence measurement. The amount of the substrate accumulated into the vesicles was measured by fluorescent detection using a Varioskan LUX microplate reader (Thermo Fisher Scientific, Finland) (Table ). The accumulation into the P-gp vesicles was measured with high-performance liquid chromatography (HPLC) (Agilent 110 series, Agilent Technologies, USA) after lysis and elution of the vesicle contents with 100 μL 3:1 methanol/water + 0.1% formic acid. The column used was a Poroshell 120 EC-C18 with a size of 4.6 × 100 mm and 2.7 μm particle size. Eluent A was 0.1% formic acid, and eluent B was acetonitrile. The flow rate of eluent was 1 mL/min, and the injection volume of samples was 10 μL. […] The retention time for NMQ was around 2.5 min.
(§2) For the efflux transporters, the relative transport was calculated as relativetransport(%ofcontrol)=transportinh,ATP−transportinh,noATP/transportDMSO,ATP−transportDMSO,noATP×100% where transportinh,ATP and transportinh,no ATP are the transport rates in the presence of food additives with or without ATP, respectively, and transportDMSO,ATP and transportDMSO,no ATP are the corresponding transport rates in the presence of the vehicle (DMSO) with or without ATP.
(§3) The half-maximal inhibitory concentrations (IC50) were calculated with GraphPad Prism version 9.0.2 (GraphPad Software, San Diego, CA) using nonlinear regression that fits the data to a four-parameter dose–response curve: relativetransport=minimum+maximum−minimum/1+([I]/IC50)^h where minimum and maximum describe the plateaus of minimal and maximal relative transport (%), [I] is the concentration of inhibitor, and h is the Hill slope, which describes the steepness of the slope.
The target of series [2] is T2, BCRP (Homo sapiens, UniProt Q9UNQ0).
T2 sequence (Q9UNQ0 1-655): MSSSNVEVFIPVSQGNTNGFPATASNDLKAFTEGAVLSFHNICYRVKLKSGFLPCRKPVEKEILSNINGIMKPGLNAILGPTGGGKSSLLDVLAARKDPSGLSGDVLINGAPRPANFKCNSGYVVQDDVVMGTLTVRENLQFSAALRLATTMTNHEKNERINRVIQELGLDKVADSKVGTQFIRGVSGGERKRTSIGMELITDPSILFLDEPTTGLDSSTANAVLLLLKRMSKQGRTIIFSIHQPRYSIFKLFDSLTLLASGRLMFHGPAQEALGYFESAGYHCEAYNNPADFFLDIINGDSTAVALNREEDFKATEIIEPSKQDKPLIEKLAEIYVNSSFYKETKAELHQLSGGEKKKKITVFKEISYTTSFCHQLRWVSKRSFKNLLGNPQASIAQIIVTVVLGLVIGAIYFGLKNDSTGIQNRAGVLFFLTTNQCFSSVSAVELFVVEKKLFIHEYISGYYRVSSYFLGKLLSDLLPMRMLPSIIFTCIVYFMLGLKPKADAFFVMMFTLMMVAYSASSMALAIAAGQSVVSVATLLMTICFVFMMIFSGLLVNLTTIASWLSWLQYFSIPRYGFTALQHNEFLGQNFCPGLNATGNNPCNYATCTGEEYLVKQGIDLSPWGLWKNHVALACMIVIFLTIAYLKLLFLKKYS
Particulars: cited from earlier work.

In series [3] the target is T3, OATP2B1 (Homo sapiens, UniProt O94956).
T3 construct: expressed in transfected cells; host or cells: HEK293 cells (ATCC) transduced with recombinant OATP2B1 baculovirus
T3 sequence (O94956 1-709): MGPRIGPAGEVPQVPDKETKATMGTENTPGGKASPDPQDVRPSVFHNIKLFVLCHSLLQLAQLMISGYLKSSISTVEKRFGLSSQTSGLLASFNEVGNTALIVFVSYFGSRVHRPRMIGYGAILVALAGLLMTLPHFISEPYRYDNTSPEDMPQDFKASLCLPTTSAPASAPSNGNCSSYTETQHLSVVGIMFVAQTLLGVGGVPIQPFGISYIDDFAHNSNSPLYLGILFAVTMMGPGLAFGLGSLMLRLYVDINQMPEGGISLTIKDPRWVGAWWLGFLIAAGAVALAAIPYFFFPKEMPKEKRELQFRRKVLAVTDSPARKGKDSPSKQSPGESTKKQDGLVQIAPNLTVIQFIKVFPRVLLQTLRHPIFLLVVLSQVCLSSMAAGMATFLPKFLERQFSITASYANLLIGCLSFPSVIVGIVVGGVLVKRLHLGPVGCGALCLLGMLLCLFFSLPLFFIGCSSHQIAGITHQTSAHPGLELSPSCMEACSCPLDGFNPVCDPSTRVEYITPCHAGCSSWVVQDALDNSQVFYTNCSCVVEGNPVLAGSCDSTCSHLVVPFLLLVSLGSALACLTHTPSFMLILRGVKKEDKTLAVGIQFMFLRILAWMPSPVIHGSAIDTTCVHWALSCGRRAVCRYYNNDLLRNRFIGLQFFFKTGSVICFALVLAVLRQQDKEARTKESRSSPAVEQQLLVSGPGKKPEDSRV
Particulars: cited from earlier work.

Another series deals with Caco-2 cells. As to the kind of experiment: in vitro. How it is done: Caco-2 cells were cultured on 12-well Transwell polycarbonate membrane inserts with a 0.4 μm pore size (Corning Incorporated, Kennebunk, ME) at 37 °C and 5% CO2 for 21–24 days prior to the experiment as described in Hubatsch et al. The culture medium (DMEM, 10% FBS, 1% MEM nonessential amino acids, 100 U/mL penicillin–streptomycin) was changed every second day. Transepithelial electrical resistance (TEER) was measured before and after the permeability assay with a Millicell-ERS electrode (Millipore, Bedford, MA) attached to an epithelial volt ohm meter (EVOM, World Precision Instruments, Sarasota, FL). The permeability assay was performed according to a previously published protocol. […] Sulfasalazine is a substrate of BCRP and OATP2B1. , The DMSO concentration was 0.45–1.5%. Before the experiment, inserts were washed and preincubated in the transport buffer for 20 min shaking at 37 °C. Sulfasalazine and LY permeability was measured in the apical to basolateral direction at five time points (20, 40, 60, 90, and 120 min) and, additionally, in the basolateral to apical direction to calculate the efflux ratio. […] […] LY (250 μM) was added on the donor side of all inserts to measure the integrity of the cell monolayer. Before analysis, samples were centrifuged at 2755g for 30 min, and donor solution and mass balance samples were diluted 1:100. LY fluorescence was measured with a Varioskan LUX microplate reader (Thermo Fisher Scientific) at 430 nm excitation and 538 nm emission. Sulfasalazine was analyzed with ultra-performance liquid chromatography (UPLC) using a Syncronis C18 column (1.7 μm particle size, 50 × 2.1 mm + 0.2 μm Waters online filter) (Thermo Fisher Scientific) coupled with Waters Acquity UPLC interfaced with a PDA detector both controlled by the Waters Empower software version 3. The UPLC was operated in gradient mode at 354 nm. Solvents were 0.015 M phosphate buffer pH 2 (A), acetonitrile (B), 1:1 acetonitrile/methanol (strong needle wash), and 20% acetonitrile (weak needle wash). Column temperature was 30 °C, injection volume was 10 μL, retention time was 1.46 min, and flow rate was 0.5 mL/min. The gradient was 25% B → 70% B (0–3 min), 70% B → 25% B (3.00–3.01 min), and 25% B (3.01–4 min). The data were collected for the first 180 s of each UPLC run.
In the Caco-2 permeability assay, the apparent permeability (P app) of sulfasalazine was calculated using the following equation: Papp=(dQ/dt)(1/A×C0) where dQ/dt is the rate of permeation across the cells (nmol/min), A is the surface area of the filter (1.12 cm^2), and C 0 is the initial concentration in the donor chamber (μM). The efflux ratio of sulfasalazine was calculated by dividing the P app in the basolateral to the apical direction by the P app in the apical to basolateral direction. The TEER for each cell insert was calculated before and after the experiment by multiplying the mean resistance of three measurements by the surface area of the filter (1.12 cm^2). Mass balance was calculated by dividing the […]. All experiments were done in triplicate wells, and the IC50 and Caco-2 permeability assays were repeated three times.

Series [4] concerns the target T3, OATP2B1. As to the kind of experiment: HEK293 uptake assay, OATP2B1 (5-carboxyfluorescein substrate). The format is cell-based. Particulars: food additive 50 μM; 5-carboxyfluorescein 2 μM; HEK293 cells; n = 1. On the procedure: The inhibition of OATP2B1 was studied using a HEK293 cell-based uptake assay. HEK293 cells were cultured in DMEM supplemented with 10% FBS at 37 °C and 5% CO2 and seeded at 22,500 cells/well on 96-well plates coated with 0.1 mg/mL poly-D-lysine. After 24 h, the medium was replaced with a transduction mix (DMEM with 10% FBS, 5 mM sodium butyrate, and recombinant OATP2B1 or enhanced yellow fluorescent protein [eYFP, negative control] baculoviruses). The baculoviruses were produced as previously described. The uptake assay was performed after approximately 48 h. […] Test solutions also contained the substrate. Cells were washed with warm transport buffer and preincubated at 37 °C. Preincubation solutions were replaced with test solutions and incubated at 37 °C with shaking at 250 rpm. Transport was terminated by aspirating the test solution and washing the wells with an ice-cold transport buffer (150 μL) three times. Wells were left to dry, and cells were lysed with 0.1 M NaOH. […] Total protein concentration was measured from six random wells with a Pierce Coomassie (Bradford) Assay kit (Thermo Fisher Scientific) to ensure a similar protein concentration in the OATP2B1 and eYFP wells.

Series [5] addresses T2, BCRP. Put plainly: Vesicular transport assay, BCRP (Lucifer yellow substrate). On the set-up: made in house; host or cells: Spodoptera frugiperda Sf9 cells, crude membrane vesicles. Type of series: biochemical. Particulars: for inhibition of BCRP substrate accumulation: n = 1.
Protocol: as §1, §2, §3
In series [6] the target is T1, P-gp. The arrangement: made in house; host or cells: Spodoptera frugiperda Sf9 cells, crude membrane vesicles. Particulars: ref Kulkarni et al.; cited from earlier work.
[7] abbreviates: food additive 50 μM, Lucifer yellow 50 μM.

T1 sequence (P08183 whole entry): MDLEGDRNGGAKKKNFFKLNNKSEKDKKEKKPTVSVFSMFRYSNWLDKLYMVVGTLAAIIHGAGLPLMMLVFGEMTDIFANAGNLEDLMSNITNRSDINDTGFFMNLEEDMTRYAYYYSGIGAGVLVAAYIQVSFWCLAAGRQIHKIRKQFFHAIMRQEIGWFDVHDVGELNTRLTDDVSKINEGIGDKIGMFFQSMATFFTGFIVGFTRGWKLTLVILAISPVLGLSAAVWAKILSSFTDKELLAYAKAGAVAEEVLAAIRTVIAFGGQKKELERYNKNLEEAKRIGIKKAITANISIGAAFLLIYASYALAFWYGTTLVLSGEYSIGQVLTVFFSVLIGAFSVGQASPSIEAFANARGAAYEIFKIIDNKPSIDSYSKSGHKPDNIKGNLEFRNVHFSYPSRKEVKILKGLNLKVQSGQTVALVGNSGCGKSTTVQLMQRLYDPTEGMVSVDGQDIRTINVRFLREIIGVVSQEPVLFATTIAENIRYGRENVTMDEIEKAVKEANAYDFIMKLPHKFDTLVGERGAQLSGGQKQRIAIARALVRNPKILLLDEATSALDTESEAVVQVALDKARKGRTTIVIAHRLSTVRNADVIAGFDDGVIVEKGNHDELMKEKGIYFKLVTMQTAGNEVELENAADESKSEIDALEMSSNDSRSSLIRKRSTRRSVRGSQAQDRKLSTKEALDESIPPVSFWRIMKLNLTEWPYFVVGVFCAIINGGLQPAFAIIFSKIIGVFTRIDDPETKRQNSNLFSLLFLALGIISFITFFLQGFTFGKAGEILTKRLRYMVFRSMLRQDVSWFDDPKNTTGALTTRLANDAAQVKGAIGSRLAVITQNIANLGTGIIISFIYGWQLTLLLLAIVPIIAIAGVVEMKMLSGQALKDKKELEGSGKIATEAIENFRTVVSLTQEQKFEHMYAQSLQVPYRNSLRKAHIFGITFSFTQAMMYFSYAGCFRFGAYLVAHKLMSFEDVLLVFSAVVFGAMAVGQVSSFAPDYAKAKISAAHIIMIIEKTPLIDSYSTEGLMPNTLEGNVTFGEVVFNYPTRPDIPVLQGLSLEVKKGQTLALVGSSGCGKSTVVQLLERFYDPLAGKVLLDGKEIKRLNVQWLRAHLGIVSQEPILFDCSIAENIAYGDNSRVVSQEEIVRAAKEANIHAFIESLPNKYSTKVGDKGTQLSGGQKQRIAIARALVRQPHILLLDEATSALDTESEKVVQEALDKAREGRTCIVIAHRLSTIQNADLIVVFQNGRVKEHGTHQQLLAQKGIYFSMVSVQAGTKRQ

Turning to `CCCOC(=O)c1cc(O)c(O)c(O)c1` [propyl gallate], the “inhibition of P-gp substrate accumulation” value against P-gp [1] is “None”.
Turning to `OC[C@@H](O)[C@@H](O)CO` [erythritol], at P-gp [1], the “inhibition of P-gp substrate accumulation” value is recorded as “None”.
For orientation: IC50 means the concentration needed to halve the response being measured. For `O=S(=O)([O-])c1ccc(N=Nc2c(O)ccc3cc(S(=O)(=O)[O-])ccc23)cc1.[Na+].[Na+]` [sunset yellow FCF], the half-inhibitory concentration (IC50) at BCRP [2] (read-out: IC50 (95% CI), BCRP, previously characterized inhibitors, ref previous studies) was 10.6 µM and 14.1 µM; on OATP2B1 [3] (pH 5.5, previously characterized inhibitors, ref previous studies, read-out: IC50, OATP2B1, pH 5.5), 20.3 µM. For the same molecule, the Ki at OATP2B1 [3] (previously characterized inhibitors, ref previous studies, read-out: K i, OATP2B1) was 68.4 µM. For the same molecule, in the series with Caco-2 cells (Caco-2), the “effect on sulfasalazine permeability (P app)” value is “None of the selected food additives showed any effect”.
As to `OC[C@@H](O)[C@@H](O)[C@H](O)[C@@H](O)CO` [sorbitol], the “inhibition of P-gp substrate accumulation” value at P-gp [1] is “None”.
Turning to `OC[C@@H](O)[C@@H](O)[C@H](O)[C@H](O)CO` [mannitol], the “inhibition of P-gp substrate accumulation” value against P-gp [1] is “None”.
For the molecule `COc1ccc2c3c([nH]c2c1)[C@H](CC(C)C)N1C(=O)[C@H](CCC(=O)OC(C)(C)C)NC(=O)[C@@H]1C3` [Ko-143, reference compound], in the series with Caco-2 cells (Ko-143 10 μM on apical and basolateral sides, sulfasalazine 500 μM), the “apical to basolateral P app of sulfasalazine with control inhibitor” value was ~0.6 × 10^–6 cm/s.
As to `OC[C@@H](O)[C@H](O)[C@@H](O)CO` [xylitol], at P-gp [1], the “inhibition of P-gp substrate accumulation” value is listed as “None”.
Consider `CC1=C(/C=C/C(C)=C/C=C/C(C)=C/C=C/C=C(C)/C=C/C=C(\C)C=O)C(C)(C)CCC1` [beta-apo-8’-carotenal], for which the “inhibition of P-gp substrate accumulation” value on P-gp [1] is listed as “did not inhibit these transporters as markedly as beta-carotene”. Moreover, the “inhibition of OATP2B1-mediated uptake” value on OATP2B1 [4] is “did not inhibit these transporters as markedly as beta-carotene”. Moreover, the “inhibition of BCRP substrate accumulation” value on BCRP [5] (setting [7]) was “did not inhibit these transporters as markedly as beta-carotene”.
The inhibition is the change of the read-out against control, counted positive when it falls. Regarding `CCCCCCCCCCCCOC(=O)c1cc(O)c(O)c(O)c1` [dodecyl gallate], on BCRP [5] (Lucifer yellow 50 μM, membrane vesicles, n = 3, read-out: IC50 (95% CI), BCRP), the IC50 is 22.5 µM. For the same molecule, on BCRP [5] (Sf9-derived crude membrane vesicles expressing BCRP, pH 7, probe Lucifer yellow 50 μM, food additive 50 μM, n = 1, read-out: inhibition of BCRP substrate accumulation), the inhibition at 50 μM is at least 50%.
As for `OC[C@@H](O)[C@@H](O[C@H]1O[C@H](CO)[C@@H](O)[C@H](O)[C@H]1O)[C@H](O)[C@@H](O)CO` [maltitol], at P-gp [1], the “inhibition of P-gp substrate accumulation” value is listed as “None”.
Take `OC[C@@H](O)[C@@H](O[C@@H]1O[C@H](CO)[C@H](O)[C@H](O)[C@H]1O)[C@H](O)[C@@H](O)CO` [lactitol]: at P-gp [1], the “inhibition of P-gp substrate accumulation” value was “None”.
Same read-out and setting: next, `O=C1O[C@H]([C@@H](O)CO)C(O)=C1O` [ascorbic acid]: “None”.
On to `COc1ccc(O)c(C(C)(C)C)c1` [butylated hydroxyanisole], for which, on P-gp [1], the “inhibition of P-gp substrate accumulation” value is recorded as at most 50%. The IC50 is over 50 µM on BCRP [2] (read-out: IC50, BCRP, ref Kulkarni et al.); over 50 µM at OATP2B1 [3] (ref Kulkarni et al., read-out: IC50, OATP2B1); over 50 µM at P-gp [6]. Moreover, the BCRP inhibition entry on BCRP [2] (ref Kulkarni et al.) is reported as “significant inhibitor”. For the same molecule, the OATP2B1 inhibition entry on OATP2B1 [3] (ref Kulkarni et al.) is given as “significant inhibitor”. The “inhibition of OATP2B1-mediated uptake” value on OATP2B1 [4] is reported as at most 50%. For the same molecule, the “inhibition of BCRP substrate accumulation” value against BCRP [5] (setting [7]) was at most 50%. Also, the P-gp inhibition result on P-gp [6] is “significant inhibitor”.
Consider `O=C([O-])C1=NN(c2ccc(S(=O)(=O)[O-])cc2)C(=O)C1N=Nc1ccc(S(=O)(=O)[O-])cc1.[Na+].[Na+].[Na+]` (stereo not shown) [tartrazine], for which the “sulfasalazine P app fold change” value in the series with Caco-2 cells (food additive 200 μM on both sides of the cell monolayer) is at most 2.

These data come from PMC12406256, “Food Additives Inhibit Intestinal Drug Transporters but Have Limited Effect on In Vitro Drug Permeability” (Molecular Pharmaceutics, 2025).
